Experimental findings from patent publication US20260250318A1, “COMPOSITIONS AND METHODS FOR CROSSING THE BLOOD BRAIN BARRIER” (VOYAGER THERAPEUTICS, INC., priority 2022, published 2026) are described below.

Non-standard residues stand in square brackets, D forms with d. Residues, ends and D or L forms follow the SMILES beside them. *: point of attachment. Biotin = O=C1N[C@H]2[C@H](CS[C@H]2CCCCC(=O)*)N1; pS = N[C@@H](COP(=O)(O)O)C(=O)O

In assay [1] the target is human ALPL (soluble protein used in the ELISA and SPR of Example 14) (human) (UniProt P05186). Nature of the assay: SPR (Biacore), antibody captured on the chip, 1.6 to 1000 nM of human ALPL flowed over.
In assay [2] the target is T1, ALPL (Homo sapiens, UniProt P05186).
T1 sequence (P05186 18-501): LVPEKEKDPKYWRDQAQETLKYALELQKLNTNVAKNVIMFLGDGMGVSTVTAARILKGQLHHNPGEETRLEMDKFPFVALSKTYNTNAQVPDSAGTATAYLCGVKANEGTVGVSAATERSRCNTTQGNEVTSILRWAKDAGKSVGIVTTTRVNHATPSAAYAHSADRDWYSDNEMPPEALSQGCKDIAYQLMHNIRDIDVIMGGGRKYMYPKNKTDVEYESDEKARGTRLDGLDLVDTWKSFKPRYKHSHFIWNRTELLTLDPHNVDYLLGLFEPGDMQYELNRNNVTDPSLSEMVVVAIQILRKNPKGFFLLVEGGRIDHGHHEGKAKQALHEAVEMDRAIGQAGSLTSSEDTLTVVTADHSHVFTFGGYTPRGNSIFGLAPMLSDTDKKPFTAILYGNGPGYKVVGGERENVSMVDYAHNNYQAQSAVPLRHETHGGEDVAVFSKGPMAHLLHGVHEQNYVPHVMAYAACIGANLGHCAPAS
Briefly: SPR (Biacore 8K) binding of peptide ligands to ALPL. The settings on record: peptides 0 to 50 μM. The method, then:
Binding and interaction between the peptides and the ALPL receptor were measured by Surface Plasmon Resonance (SPR) on a Biacore 8K instrument. The biotinylated peptides in Table 37 were captured on the streptavidin biosensor chip and 1000 nM of ALPL and buffer were passed over the peptides to monitor binding. […] His-tagged ALPL was then captured on the chip pre-immobilized with anti-His antibody, and 50 μM of the peptides in Table 37 or 250 nM of the AAV9 control capsid, the TTM-001 capsid variant (SEQ ID NO: 981), or the TTM-002 capsid variant (SEQ ID NO: 982) were flowed over the ALPL to check for binding. […] The longer peptides derived from TTM-002,
were also flowed over the his-tagged ALPL captured on the CM5 sensor chip pre-immobilized with anti-His antibody.
Binding and interaction between the phosho-peptides and the ALPL receptor were also measured by SPR. The biotinylated and phosphorylated peptides in Table 38 were captured on the streptavidin biosensor chip along with their non-phosphorylated counterparts, […] (SEQ ID NO: 4500) and […] (SEQ ID NO: 4503). ALPL and buffer were passed over the peptides to monitor binding. The concentration of ALPL used ranged from 0 to 500 nM (0 nM, 125 nM, 250 nM, and 500 nM).
In a second experiment, his-tagged ALPL was first captured on a CM5 sensor chip pre-immobilized with anti-His antibody. The phosphorylated peptides in Table 38 and their non-phosphorylated counterparts, […] (SEQ ID NO: 4500) and […] (SEQ ID NO: 4503) and buffer were flowed over the ALPL protein to monitor binding.

Assay [3] deals with T1, ALPL. Briefly: biochemical. The class given is binding. Conditions: for binding to ALPL by ELISA: ALPL coated on wells. An excerpt:
Binding of the phospho-peptides of SEQ ID NO: 4512 and 4513 along with their non-phosphorylated counterparts, […] (SEQ ID NO: 4500) and […]

Another assay concerns the target T2, His-tagged ALPL (Homo sapiens, UniProt P05186).
T2 sequence (P05186 18-501): T1 sequence (P05186 18-501)
Nature of the assay: Bio Layer Interferometry (BLI)/Octet binding of peptides to ALPL. The settings on record: for binding to ALPL by BLI/Octet: ALPL 1.56 to 100 nM. An excerpt:
Binding of the phospho-peptides of SEQ ID NO: 4512 and SEQ ID NO: 4513 to ALPL was also investigated using Bio Layer Interferometry (BLI)/Octet.

In assay [1], “Human Alkaline Phosphatase/ALPL Antibody, clone B4-78 (MAB1448-SP)” came in with a Kd of 215 nM, a koff of 0.0015 s⁻¹ and a kon of 6800 M⁻¹ s⁻¹.
For `NCCCC[C@H](NC(=O)[C@H](Cc1c[nH]cn1)NC(=O)[C@@H]1CCCN1C(=O)[C@H](COP(=O)(O)O)NC(=O)[C@H](CC(=O)O)NC(=O)[C@H](Cc1c[nH]cn1)NC(=O)CNC(=O)[C@H](CC(N)=O)NC(=O)[C@H](CO)NC(=O)CNC(=O)[C@H](CO)NC(=O)CNC(=O)CCCC[C@@H]1SC[C@@H]2NC(=O)N[C@@H]21)C(=O)N[C@@H](CO)C(=O)NCC(N)=O` [SEQ ID NO: 4512] (Biotin-GSGSNGHD[pS]PHKSG-NH2), at ALPL [2], the “binding to ALPL by SPR, his-tagged ALPL captured on chip” value is “low signal with dose dependency”. Further, on ALPL [3], the EC50 was 763 nM and the “binding to ALPL by ELISA” value is given as “dose-dependent binding to ALPL”. In addition, at His-tagged ALPL, the affinity, expressed as Kd, was 112 nM; the koff was 0.0026 s⁻¹; the kon was 23000 M⁻¹ s⁻¹; the “binding to ALPL by BLI/Octet” value is on record as “demonstrated binding to ALPL”.
As for `CC[C@H](C)[C@H](NC(=O)[C@@H](NC(=O)[C@H](CCCCN)NC(=O)[C@H](CO)NC(=O)CNC(=O)[C@H](CO)NC(=O)CNC(=O)CCCC[C@@H]1SC[C@@H]2NC(=O)N[C@@H]21)[C@@H](C)O)C(=O)N[C@@H](CC(N)=O)C(=O)NCC(=O)N[C@@H](Cc1c[nH]cn1)C(=O)N[C@@H](CC(=O)O)C(=O)N[C@@H](COP(=O)(O)O)C(=O)N1CCC[C@H]1C(=O)N[C@@H](Cc1c[nH]cn1)C(=O)N[C@@H](CCCCN)C(=O)N[C@@H](CO)C(=O)NCC(=O)N[C@@H](CCC(N)=O)C(=O)N[C@@H](CC(N)=O)C(=O)N[C@@H](CCC(N)=O)C(N)=O` [SEQ ID NO: 4513] (Biotin-GSGSKTINGHD[pS]PHKSGQNQ-NH2), the “binding to ALPL by SPR, his-tagged ALPL captured on chip” value at ALPL [2] is given as “low signal with dose dependency”. Further, on ALPL [3], the EC50 is 4290 nM and the “binding to ALPL by ELISA” value is reported as “dose-dependent binding to ALPL”. Besides, at His-tagged ALPL, the Kd was 20.7 nM, the koff was 0.00067 s⁻¹, the kon was found to be 32000 M⁻¹ s⁻¹ and the “binding to ALPL by BLI/Octet” value is on record as “demonstrated binding to ALPL”. Besides, the “binding to ALPL at a pH of 5.5” value at His-tagged ALPL (pH 5.5) is listed as “no binding was observed”.
